Laboratory results from the supplement of paper PMC10307832.

Legend:
[1] = compound: Cc1ccc(C(=O)Nc2ccc(CN3CCN(C)CC3)c(C(F)(F)F)c2)cc1C#Cc1cnc2cccnn12 [Ponatinib] + COc1cc2c(Oc3ccc(NC(=O)C4(C(=O)Nc5ccc(F)cc5)CC4)cc3F)ccnc2cc1OCCCN1CCOCC1 [Foretinib] (partner 0.25 µM); test: relative viability (nuclei count vs DMSO), 5 days (fraction); higher = more cells survive
Summary of the method: (§1)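 Nuclei were stained with Hoechst during a one-step fixation (final 0.05% Triton X-100, 1% formaldehyde, 1 ug/ml Hoechst) carried out 5 days after dosing, then counted on 4× images. The cells, lung cancer lines in 1536-well plates, had been dosed by pin tool the day after seeding with one drug alone or a fixed anchor-drug dose plus five library-drug doses (not always all listed) in √10 steps. Relative viability is the nuclei count in treated wells divided by that in vehicle wells, and each value is the median of duplicate plates.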

[2] = compound: Cc1ccc(Nc2nccc(N(C)c3ccc4c(C)n(C)nc4c3)n2)cc1S(N)(=O)=O [Pazopanib] + Cc1cc(Nc2cc(N3CCN(C)CC3)nc(Sc3ccc(NC(=O)C4CC4)cc3)n2)n[nH]1 [Tozasertib] (partner 0.1 µM); test: as above
Summary of the method: as §1

Cell Line	relative viability ([1]; first compound 0.002 µM)	relative viability ([1]; first compound 0.006325 µM)	relative viability ([1]; first compound 0.06325 µM)	relative viability ([1]; first compound 0.2 µM)	relative viability ([2]; first compound 0.01 µM)	relative viability ([2]; first compound 0.03162 µM)	relative viability ([2]; first compound 0.1 µM)	relative viability ([2]; first compound 0.3162 µM)	relative viability ([2]; first compound 1 µM)
NCI-H1734	0.73	0.895	0.821	0.809	0.262	0.242	0.28	0.261	0.234
NCI-H2126	1.12	1.29	1.34	1.07	0.805	0.828	0.877	0.86	0.842
EMC-BAC-2	0.965	0.989	1.06	0.986		0.302	0.302	0.226	0.278
NCI-H1993	0.722	0.778	0.973	0.76		0.54	0.656	0.589	0.579
NCI-H596	0.732	0.753	0.851	0.721		0.942	0.856	0.936	0.761
NCI-H650	0.968	1.03	1.02	0.884	0.688	0.826	0.691	0.804	0.655
SW 1573	0.75	0.767	0.922	0.864	0.193	0.216	0.218	0.153	0.176
ChaGo-K-1	0.868	0.923	0.959	0.832	0.21	0.221	0.241	0.257	0.255
NCI-H2342	1.04	1.04	1.01	0.972	0.481	0.554	0.544	0.496	0.388
NCI-H1299	1.07	1.09	1.15	1.07					
NCI-H1650	1.36	1.07	1.55	1.31	0.47	0.382	0.443	0.539	0.312
NCI-H2009	1.18	1.2	1.22	1.17	0.787	0.738	0.613	0.801	0.51
LOU-NH91	0.929	0.98	0.996	0.931	0.647	0.664	0.749	0.781	0.698
NCI-H3122	0.977	0.981	1	0.943	0.408	0.382	0.435	0.394	0.426
SW 900	0.893	0.998	1.12	0.593	0.556	0.443	0.495	0.578	0.53
LCLC-97TM1	0.915	0.967	0.944	0.675	0.222	0.221	0.185	0.195	0.166
NCI-H647	1.12	1.01	1.24	1.08	0.23	0.279	0.395	0.43	0.321
NCI-H838	1.02	1.03	1.05	0.955	0.278	0.247	0.29	0.28	0.295
H3255	0.739	0.898	0.699	0.773	0.489	0.629	0.986	0.656	0.734
NCI-H1395	0.903	0.996	0.945	0.904	0.793	0.715	0.764	0.915	0.747

Cell Line	relative viability ([1]; first compound 0.002 µM)	relative viability ([1]; first compound 0.006325 µM)	relative viability ([1]; first compound 0.06325 µM)	relative viability ([1]; first compound 0.2 µM)	relative viability ([2]; first compound 0.01 µM)	relative viability ([2]; first compound 0.03162 µM)	relative viability ([2]; first compound 0.1 µM)	relative viability ([2]; first compound 0.3162 µM)	relative viability ([2]; first compound 1 µM)
NCI-H1437	1.22	1.22	1.31	1.28	0.414	0.42	0.408	0.412	0.375
NCI-H1648					0.387	0.57	0.398	0.459	0.476
LU99A	0.781	0.928	0.876	0.774	0.272	0.3	0.277	0.262	0.233
NCI-H522					0.568	0.454	0.493	0.646	0.58
HCC-827	0.971	1.02	0.997	1	0.436	0.44	0.42	0.414	0.433
LK-2		1.07	0.687	0.739		0.178	0.201	0.169	0.174
HCC-366	0.887	0.939	0.955	0.956	0.124	0.132	0.0845	0.163	0.068
BEN	0.549	0.663	0.457	0.674	0.481	0.463	0.582	0.516	0.482
NCI-H23	0.949	1.04	1.04	0.832	0.373	0.341	0.359	0.458	0.392
NCI-H1793	0.749	0.696	0.707	0.539		0.347	0.275	0.367	0.374
A549	0.965	0.941	1.13	0.887					
201T	1.1	1.1	1.18	1.03	0.961	1	0.961	0.908	0.926
NCI-H358	0.734	0.731	1.02	0.784	0.109	0.0888	0.104		0.0878
NCI-H520	0.628	0.786	0.496	0.596	0.458	0.416	0.452	0.438	0.386
NCI-H727	0.781	0.839	0.64	0.869	0.599	0.543	0.622	0.631	0.704
HCC-15	0.974	0.928	1.13	1.01	0.435	0.502	0.411	0.394	0.37
NCI-H1563	0.881	0.863	0.955	0.854					
ABC-1	1.01	0.995	1.15	1.09	0.182	0.174		0.151	0.19
LCLC-103H	0.745	0.755	0.775	0.688	0.456	0.464	0.46	0.467	0.479
